Assays:
NHE-3 = NHE-3 (Homo sapiens, UniProt P48764); settings: cited from earlier work
NHE5 = target: T1, NHE5 (Homo sapiens, UniProt Q14940); settings: cited from earlier work
T1 sequence (Q14940 1-896): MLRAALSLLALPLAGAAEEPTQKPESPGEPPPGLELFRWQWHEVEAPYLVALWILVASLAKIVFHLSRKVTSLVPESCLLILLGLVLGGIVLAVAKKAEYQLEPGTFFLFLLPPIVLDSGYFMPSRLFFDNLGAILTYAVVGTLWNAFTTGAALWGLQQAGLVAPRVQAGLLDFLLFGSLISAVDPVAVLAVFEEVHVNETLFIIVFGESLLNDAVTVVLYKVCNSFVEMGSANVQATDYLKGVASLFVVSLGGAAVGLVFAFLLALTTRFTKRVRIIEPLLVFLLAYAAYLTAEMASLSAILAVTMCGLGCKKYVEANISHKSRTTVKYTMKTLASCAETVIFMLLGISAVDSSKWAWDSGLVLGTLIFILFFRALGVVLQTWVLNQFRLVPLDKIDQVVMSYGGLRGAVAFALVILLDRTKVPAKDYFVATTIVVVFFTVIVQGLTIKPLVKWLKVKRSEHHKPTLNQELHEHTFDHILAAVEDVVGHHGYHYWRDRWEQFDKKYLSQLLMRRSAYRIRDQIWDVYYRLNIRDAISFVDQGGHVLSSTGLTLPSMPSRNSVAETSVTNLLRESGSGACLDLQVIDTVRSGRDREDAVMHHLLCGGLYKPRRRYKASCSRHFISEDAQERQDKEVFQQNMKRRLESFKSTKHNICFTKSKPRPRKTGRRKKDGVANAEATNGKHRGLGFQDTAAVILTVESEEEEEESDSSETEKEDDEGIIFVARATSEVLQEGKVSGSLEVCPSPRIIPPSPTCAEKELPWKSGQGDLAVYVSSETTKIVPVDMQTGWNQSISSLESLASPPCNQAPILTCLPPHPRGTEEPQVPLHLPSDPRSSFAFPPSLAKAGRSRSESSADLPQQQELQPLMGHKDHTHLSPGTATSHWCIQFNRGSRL

NHE-2 isoform = target: T2, NHE-2 isoform (Homo sapiens, UniProt Q9UBY0); settings: cited from earlier work
T2 sequence (Q9UBY0 1-812): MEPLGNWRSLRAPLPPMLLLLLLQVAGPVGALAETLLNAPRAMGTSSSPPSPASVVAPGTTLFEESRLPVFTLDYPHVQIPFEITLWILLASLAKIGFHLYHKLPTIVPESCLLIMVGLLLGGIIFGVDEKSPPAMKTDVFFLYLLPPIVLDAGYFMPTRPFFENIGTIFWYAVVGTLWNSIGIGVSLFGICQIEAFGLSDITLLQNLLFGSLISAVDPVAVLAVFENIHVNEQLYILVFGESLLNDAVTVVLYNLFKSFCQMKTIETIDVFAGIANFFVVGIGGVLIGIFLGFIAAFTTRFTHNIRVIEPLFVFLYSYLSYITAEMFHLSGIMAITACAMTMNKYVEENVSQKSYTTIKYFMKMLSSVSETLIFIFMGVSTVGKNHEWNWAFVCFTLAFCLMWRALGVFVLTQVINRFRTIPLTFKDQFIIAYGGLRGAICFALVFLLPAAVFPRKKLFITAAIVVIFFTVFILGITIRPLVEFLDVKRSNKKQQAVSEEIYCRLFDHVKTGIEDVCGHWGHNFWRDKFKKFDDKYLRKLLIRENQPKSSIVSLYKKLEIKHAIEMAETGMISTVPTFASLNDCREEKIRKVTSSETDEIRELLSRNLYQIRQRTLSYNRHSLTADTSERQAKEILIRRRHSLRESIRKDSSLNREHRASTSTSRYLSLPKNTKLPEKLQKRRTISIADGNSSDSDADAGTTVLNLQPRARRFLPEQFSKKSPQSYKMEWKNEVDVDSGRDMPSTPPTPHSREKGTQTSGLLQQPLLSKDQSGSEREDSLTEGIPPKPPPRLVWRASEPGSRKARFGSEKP

ApoE receptors (Apoer2) = test: recycling of ApoE receptors in the presence of ApoE4 / ApoE3; assay type: cell-based

NHE-3, sequence (P48764 26-834, species assumed): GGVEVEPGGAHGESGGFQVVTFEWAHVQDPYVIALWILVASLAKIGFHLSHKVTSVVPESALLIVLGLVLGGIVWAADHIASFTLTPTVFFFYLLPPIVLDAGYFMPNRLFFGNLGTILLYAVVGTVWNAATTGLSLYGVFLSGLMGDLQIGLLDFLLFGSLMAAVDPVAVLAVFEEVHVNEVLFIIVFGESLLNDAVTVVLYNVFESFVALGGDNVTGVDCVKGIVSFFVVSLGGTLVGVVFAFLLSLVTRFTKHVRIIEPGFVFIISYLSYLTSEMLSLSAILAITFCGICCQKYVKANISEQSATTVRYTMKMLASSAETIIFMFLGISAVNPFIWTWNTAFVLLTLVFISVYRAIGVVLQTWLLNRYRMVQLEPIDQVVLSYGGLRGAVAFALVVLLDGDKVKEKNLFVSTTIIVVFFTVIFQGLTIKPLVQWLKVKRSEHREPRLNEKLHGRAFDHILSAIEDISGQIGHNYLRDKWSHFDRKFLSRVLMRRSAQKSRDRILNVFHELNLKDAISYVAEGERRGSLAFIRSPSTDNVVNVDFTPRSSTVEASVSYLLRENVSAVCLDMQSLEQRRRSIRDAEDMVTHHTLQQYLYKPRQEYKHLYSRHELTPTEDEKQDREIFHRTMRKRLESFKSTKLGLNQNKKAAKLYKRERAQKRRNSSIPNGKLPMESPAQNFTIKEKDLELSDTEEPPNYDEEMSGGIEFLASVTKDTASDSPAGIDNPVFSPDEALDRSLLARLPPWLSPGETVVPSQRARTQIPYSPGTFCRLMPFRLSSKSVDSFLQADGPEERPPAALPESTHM

## CC(=Cc1cc(C)ccc1C=C(C)C(=O)NC(=N)N)C(=O)N=C(C)C.Cl.Cl [S3226, 3-[2-(3-guanidino-2-methyl-3-oxo-propenyl)-5-methyl-phenyl]-N-isopropylidene-2-methyl-acrylamide dihydro-chloride]
NHE-3
  NHE-3 potency and specificity: relatively potent and specific

## CN1Cc2c(Cl)cc(Cl)cc2C(c2ccc(S(=O)(=O)N=C(N)N)cc2)C1 (stereo not shown) [N-diaminomethylene-4-(6,8-dichloro-2-methyl-1,2,3,4-tetrahydroisoquinolin-4-yl)benzenesulfonamide]
NHE5
  NHE5 selectivity: NHE5 selective

## CS(=O)(=O)O.CS(=O)(=O)c1cc(C(=O)N=C(N)N)ccc1N1CCCCC1 [HOE 694]
NHE-2 isoform
  NHE-2 isoform selectivity: relatively selective

## CC(C)NCC(O)c1ccc(O)c(O)c1 (stereo not shown) [isoproterenol]
ApoE receptors (Apoer2); activation of beta-adrenergic receptors, in the presence or absence of IBMX
  ApoE receptor recycling: restores normal ApoE receptor recycling

## COc1ccc(C2CNC(=O)C2)cc1OC1CCCC1 (stereo not shown) [rolipram]
ApoE receptors (Apoer2); in the presence of ApoE3
  effect on altering the recycling properties of Apoer2: negligible effect
ApoE receptors (Apoer2); in the presence of ApoE4
  recycling deficit induced by ApoE4: completely normalizes

## COc1ccc2c3c([nH]c2c1)C(C)=NCC3 [hamaline]
NHE5
  NHE5 selectivity: NHE5 selective

Source: patent US8530516B2, “Promoting cycling of ApoE4 isoform” (Board of Regents, The University of Texas System, priority 2009, dated 2013)
